Results from the Kinase Knowledgebase extract (Sharma et al. 2016).

target: CDK2 (UniProt P24941); test: Enzyme Assay

IC50, < 50 µM:
CC(C)(C)C(=O)Cc1ncc(SCc2ncc(C(C)(C)C)o2)s1, CC(C)(C)c1cnc(CSc2cnc(Nc3ccc(S(N)(=O)=O)cc3)s2)o1, CC(C)(C)c1cnc(CSc2cnc(NC(=NC#N)Nc3c(F)cccc3F)s2)o1, CCc1cnc(CSc2cnc(NC(C)=O)s2)o1, CC(C)(C)c1cnc(CSc2cnc(Nc3ccccn3)s2)o1, CC(=O)Nc1ncc(SCc2nc(C)c(C)o2)s1, CCc1cnc(CSc2cnc(NC(=O)c3ccccc3)s2)o1, CC(=O)Nc1ncc(SC(F)c2ncc(C(C)C)o2)s1 (centres undefined), CC(=O)Nc1ncc(SCc2ncc(C(C)(C)C)o2)s1, CCc1coc(CSc2cnc(NC(C)O)s2)n1 (centres undefined), CC(C)(C)c1cnc(CSc2cnc(Nc3cccc(CO)c3)s2)o1, CC(C)(C)c1cnc(CSc2cnc(Nc3ccncn3)s2)o1, CC(C)(C)c1cnc(CSc2cnc(Nc3ccc(S(=O)(=O)NCCO)cc3)s2)o1, CC(C)(CO)CNCc1ccc(Nc2ncc(SCc3ncc(C(C)(C)C)o3)s2)nc1
